Data: patent publication US10160812B2, “Bispecific HER2 antibodies” (MedImmune, LLC, priority 2014, dated 2018)
Entries after “also recorded” stand apart in the source; their conditions may differ.

Key:
[1] = test system: JIMT-1; assay: In vitro cytotoxic activity (Cell Titer Glo); format: cell-based, human; settings: JIMT-1, 3 to 4 days
Method: (§2) A panel of human cancer cell lines expressing various levels of HER2 was used to evaluate the cytotoxic activity of bispecific ADC (Table 5 in Example 1). Briefly, cells were harvested, resuspended, and plated in serum-containing culture media at a density of 5,000 to 20,000 per well (depending on the growth kinetics of each cell line) of 96-well plates in a volume of 100 μL. A 2× concentration of each dose of antibody or ADC to be tested was prepared by diluting the test articles in culture medium. One hundred microliters of each test article was added to cells in triplicate such that the final dose curve ranged from 5 nM down to 0.08 pM in a stepwise 1:4 serial dilution series. The treated cells were incubated at 37° C./5% CO2 for 3 to 4 days, depending on the growth kinetics of each particular cell line. Cell viability was determined using Cell Titer Glo according to manufacturer's instructions. Data are analyzed by the GraphPad Prism software and presented as percent growth inhibition relative to the untreated control. EC50 values were determined using Sigmoidal non-linear regression analysis with GraphPad Prism software and were summarized in Table 6.

[2] = test system: RT-112; assay: In vitro cytotoxic activity (Cell Titer Glo); format: cell-based, human; settings: RT-112, 3 to 4 days
Method: Briefly, cells were harvested, resuspended, and plated in serum-containing culture media at a density of 5,000 to 20,000 per well (depending on the growth kinetics of each cell line) of 96-well plates in a volume of 100 μL. A 2× concentration of each dose of antibody or ADC to be tested was prepared by diluting the test articles in culture medium. One hundred microliters of each test article was added to cells in triplicate such that the final dose curve ranged from 5 nM down to 0.08 pM in a stepwise 1:4 serial dilution series. The treated cells were incubated at 37° C./5% CO2 for 3 to 4 days, depending on the growth kinetics of each particular cell line. Cell viability was determined using Cell Titer Glo according to manufacturer's instructions. Data are analyzed by the GraphPad Prism software and presented as percent growth inhibition relative to the untreated control.

[3] = test system: SKOV-3; assay: In vitro cytotoxic activity (Cell Titer Glo); format: cell-based, human; settings: SKOV-3, 3 to 4 days; read-out: In vitro potency (EC50 in pM)
Method: as §2

[4] = test system: MDA-MB-361; assay: In vitro cytotoxic activity (Cell Titer Glo); format: cell-based, human; settings: MDA-MB-361, 3 to 4 days; read-out: In vitro potency (EC50 in pM)
Method: as §2

[5] = test system: SKOV-3; assay: Disruption of intracellular microtubule network (immunofluorescence); format: cell-based, human; settings: SKOV-3 (T-DM1 eligible), 5 nM ADC overnight
Method: (§1) On day 1, cells were harvested by trypsinization, resuspended in culture media, and then seeded in 8-well chamber slides at a density of 6×10^4 cells/well. Slides were incubated at 37° C./5% CO2 overnight. On day 2, media were aspirated to remove any unattached cells and then fresh media containing 5 nM ADC to be tested were added to the cells. Slides were incubated at 37° C./5% CO2 overnight. On day 3, each chamber was washed twice with 1×PBS. Cells were then fixed with 4% PFA for 20 min. At the end of fixation, the chambers were removed and slides were stained following standard immunofluorescence procedures. Briefly, cells were permeabilized using Triton X-100 and washed with 1×PBS containing Tween-20. Rabbit anti-human α-Tubulin Alexa-Fluor 488 (clone 11H10) was diluted by 1:100 in DAKO antibody diluent and added to the slides. After incubation at room temperature for 1 hour, slides were coversliped with ProLong® Gold Antifade Reagent containing DAPI. Stained cells were visualized by the Leica SP5 Confocal Microscope and the Leica Application Suite Advanced Fluorescence software suite.

[6] = test system: RT-112; assay: as above; format: cell-based, human; settings: RT-112 (T-DM1 ineligible), 5 nM ADC overnight
Method: as §1

[7] = test system: MDA-MB-361 cells; format: cell-based, human; settings: MDA-MB-361, 10 pM, relative to untreated control
Method: MDA-MB-361 cells were cultured under standard tissue culture conditions in Leibovitz's L-15 medium supplemented with 20% FBS. Cells were harvested by trypsinization, washed twice with PBS, and resuspended to 30,000 cells per mL in stem cell medium (SCM: DMEM/F12 supplemented with 20 ng/mL EGF, 10 ng/mL bFGF, 5 mg/mL insulin, 0.4% BSA and 1% knock-out serum replacement). […] At the end of treatment, the primary spheres were harvested, dissociated using 0.05% trypsin and resuspended at a density of 30,000 cells/mL in SCM containing the same antibody treatment as the primary sphere culture. Cells were then plated in triplicate into 96-well ultra-low attachment plates and incubated for 4 days. Sphere cell viability was determined using Cell Titer Glo according to manufacturer's instructions. Data are presented as fold of CSC sphere formation relative to the untreated control.

[8] = test system: JIMT-1 model; assay: CBX orthotopic tumor model (T-DM1 non-responder); format: in vivo, Athymic nude mice; settings: JIMT-1 orthotopic CBX; Bs2-4T at 3 mg/kg
Method: All mouse experiments were carried out in compliance with the guidelines published by the Association for Assessment and Accreditation of Laboratory Animal Care (AAALAC) and protocols approved by the MedImmune Institutional Animal Care and Use Committee. Athymic nude mice between 4-8 weeks of age were used in the studies. In subcutaneous CBX models, animals were injected unilaterally on the right flank with tumor cells harvested from culture at a specific passage lot. […] In PDX models, animals are implanted unilaterally on the flank with tumor fragments harvested from host animals each implanted from a specific passage lot. Pre-study tumor volumes were recorded for each experiment beginning approximately one week prior to its estimated start date. […] Animals were dosed once weekly unless otherwise specified with test articles via intravenous or intraperitoneal injection. Animals were observed daily and tumor dimensions and body weights were measured and recorded twice weekly.

[9] = biological target: T1, HER2:HER3 heterodimerization (Homo sapiens, UniProt P04626); assay: Disruption of HER2:HER3 heterodimerization (IP/Western, T47D cells); format: cell-based; settings: 500 nM antibody, heregulin-b1 8 ng/mL
T1 construct: endogenous in cells; host or cells: T47D
Method: Cells were seeded at a density of 1×10^6 cells/well in a 6-well plate and then incubated overnight at 37° C./5% CO2. […] After pre-treatment, heregulin-β1 was added at a final concentration of 8 ng/mL and cells were incubated for 5 min at 37° C./5% CO2. Cells were then washed twice with ice-cold 1×PBS, lysed and immune-precipitated using mouse anti-human HER2 (clone 44E7) antibody and the Pierce Classic IP Kit from Thermo Scientific according to manufacturer's instructions. Immune-precipitated protein samples were eluted in Laemmli buffer containing 2-mecaptoethanol and analyzed by Western blot using standard protocol. Rabbit anti-human HER2 (clone 29D8) antibody was used to detect HER2 and rabbit anti-human HER3 (C-17) polyclonal antibody was used to detect HER3 in the Western blot analysis.

[10] = test system: MCF-7 cells; assay: Ligand-dependent proliferation inhibition assay; format: cell-based, human; settings: in combination with trastuzumab or pertuzumab
Method: Cell viability was determined using Cell Titer Glo from Promega according to manufacturer's instructions.

[11] = biological target: HER2 (Homo sapiens, UniProt P04626); assay: FACS-based binding competition assay with labeled 39S; design: endogenous in cells; host or cells: BT-474; settings: BT-474 cells, 2 ug/mL labeled 39S
Method: BT-474 cells were harvested, resuspended in FACS buffer, and 2.5×10^5 cells/well were added to a 96-well U-bottom plate. […] After 1 hour of staining on ice, cells were washed 3 times with ice-cold FACS buffer and then fixed with 2% PFA. Cells were analyzed by a BD LSR II machine with BD FACSDiva™ software. Data were analyzed with FlowJo software and presented as mean MFI±SEM (n=3).

T-DM1 [reference compound]
In vitro potency (EC50 in pM) [1]: Inactive | In vitro potency (EC50 in pM) [2]: Inactive | EC50 [3]: 116 pM | EC50 [4]: 266 pM | disruption of intracellular microtubule networks [5]: capable of disrupting microtubule networks | disruption of intracellular microtubule networks [6]: inactive | inhibition of CSC sphere formation [7]: no activity | in vivo activity (tumor growth) [8]: no activity

B1: 39S: lead optimized monoclonal antibody derived from the 1.39.1 antibody; VH SEQ ID NO:15, VL SEQ ID NO:16 (antibody, V domains shown)
VH: EVQLVESGGGLVKPGGSLRLSCAASGFTFSSYSMSWVRQAPGKGLEWVSSISSSSSYIYYADSVKGRFTISRDNAKNSLYLQMNSLRAEDTAVYYCARGGDAYNYYYFDYWGQGTLVTVSS
VL: DIVMTQTPLSLSVTPGQPASISCKSSQSVFFRSNNKNILAWYLQKPGQPPQLLIYWASSRESGVPDRFSGSGSGTDFTLKISRVEAEDVGVYYCQQYFGSPFTFGPGTKVDIK
disruption of HER2:HER3 heterodimerization induced by ligand stimulation [9]: can disrupt | inhibition of ligand-dependent proliferation in combination [10]: additive or synergistic inhibition | competition for binding / epitope [11]: does not compete with trastuzumab or pertuzumab; also recorded: binds to the same epitope as its parental antibody AZ1.39.1
